Measured values published in ChEMBL document CHEMBL3507680, “University of Dundee, Gates Library screen for HepG2 cell viability”.

experiment: Human HepG2 cell viability assay in 384 well format; format: toxicity, cell-based; set-up: dose 125 nL, time 70.5 hour; concentration not given beside the values; conditions: HepG2 cells, read-out: Inhibition

Point of comparison: `CC1=C(C#N)C(=O)NC(=O)/C1=C\c1c(C)nn(-c2ccc(Cl)cc2)c1O`, cytotoxicity at 70.5 h -6.07%. Against it:
- COCCNC(=O)[C@@H](C)[C@@H]1CCc2c(C)cc(OCC(=O)O)c(C)c2C1 — higher, -6%
- CC[C@H]1CN(S(=O)(=O)c2ccc(OC)cc2)CC[C@H]1CC(=O)O — lower, -9.14%
- COCCOc1ccc(C(=O)N[C@@H]2CNCCC[C@H]2O)cc1 — higher, -2.53%
- Cn1ccnc1CN1CCOC[C@H]1c1nc(C(C)(C)C)co1 — higher, -1.75%
- CN(C)c1ccc(-c2noc([C@@H]3CCCN3)n2)cn1 — higher, 6.36%
- COCCNc1ccc(-c2noc([C@@H]3CCCN3)n2)cn1 — higher, 6.15%
- CN1[C@@H](CCC(=O)NCc2ccc(F)cc2)CNC(=O)[C@H]2NCC[C@H]21 — higher, -2.11%
- c1ccc(-c2nnc([C@H]3CCN(C4CCOCC4)C3)o2)cc1 — higher, -0.562%
- Cn1cncc1-c1nnc([C@H]2CCN(CC3CCCCC3)C2)o1 — higher, -1.28%
- c1ccc(Cc2nnc([C@H]3CCN(C4CCCCC4)C3)o2)cc1 — higher, 1.09%
- NC(=O)CN1C(=O)CO[C@H]2CN(Cc3ccc(C(F)(F)F)cc3)C[C@H]21 — higher, -1.74%
- COCCN1C(=O)CO[C@H]2CN(CCCc3ccccc3)C[C@H]21 — higher, -1.96%
- Clc1ccc(-c2c[nH]c([C@@H]3COCCN3)n2)cc1 — higher, -0.826%
- CC(=O)N1CCC(N2CCOC[C@H]2c2nc(C(C)(C)C)c[nH]2)CC1 — higher, -2.09%
- COc1ccccc1C(=O)Nc1ccc([C@@H](O)[C@H]2COCC(=O)N2)cc1 — higher, -4.28%
- N#Cc1cccc(C(=O)Nc2ccc([C@@H](O)[C@H]3COCC(=O)N3)cc2)c1 — lower, -9.14%
- Fc1ccc(CN2CCOC[C@H](Oc3cccnc3)C2)cc1 — higher, 10.5%
- CNC(=O)C(C)(C)N1CCC[C@H]1C(=O)NC1CC1 — lower, -9.14%
- Oc1ccccc1CN1C[C@H](O)C[C@H]1c1nc(Cc2ccccc2)no1 — lower, -6.19%
- CN1C[C@@H](NC(=O)C2CC2)C[C@H]1c1nc(-c2cnccn2)no1 — higher, 1.69%
- CCN(CC)C1(Cc2cc(CC(C)C)on2)COC1 — higher, 0.19%
- O=C1CO[C@H]2CN(S(=O)(=O)c3ccccc3)C[C@H]2N1Cc1ccccc1 — lower, -9.3%
- Cc1ccccc1CN1C[C@@H]2OCC(=O)N(CC(N)=O)[C@@H]2C1 — higher, -0.694%
- Cn1ccnc1CN1C[C@@H](F)[C@@H](OCc2nc3cnccc3[nH]2)C1 — higher, 13.1%
- CN(C)[C@@H]1CO[C@H](CNC(=O)CC(C)(C)C)[C@H]1O — higher, -0.485%
- O=C(NC[C@H]1OC[C@@H](NC2CCC(F)(F)CC2)[C@@H]1O)N1CCOCC1 — lower, -6.74%
- O=C1N(Cc2ccccn2)C[C@H]2CN(S(=O)(=O)c3ccccc3)CCN12 — higher, -0.174%
- Cc1nc(C)c(CN2CCOC[C@H](Oc3ccc(S(C)(=O)=O)cc3)C2)s1 — higher, 0.478%
- Cc1ccc(CN2CC[C@H](c3nnc(COc4ccc(F)cc4)o3)C2)o1 — lower, -6.96%
- O=C(NCc1ccccc1)[C@@H]1Cc2[nH]cnc2CN1CC1CC1 — higher, -3.43%
- CN1C[C@@H](NC(=O)c2ccccc2)C[C@H]1c1nc(-c2cnccn2)no1 — higher, 10.6%
- Cc1noc([C@@H]2C[C@H](NC(=O)C3CCCCC3)CN2C)n1 — higher, 0.213%
- COCC(=O)Nc1ccc(-c2noc([C@@H]3CCCN3CC(C)C)n2)cn1 — higher, 10.2%
- CC(C)N1CC[C@H](c2nc3ccc(C(F)(F)F)cc3[nH]2)C1 — higher, -5.84%
- CN(CCO)Cc1nnc(C2CCN(C(=O)c3ccccn3)CC2)n1C — higher, 1.55%
- CN(C)CCNc1cc(-c2ccc[nH]c2=O)c2cc[nH]c2n1 — higher, -5.94%
- CO[C@H]1CN(C(C)C)C[C@@H]1NC(=O)c1cc(-c2ccccc2F)n[nH]1 — lower, -6.15%
- COc1cc(C)sc1C(=O)N1CCCCC1c1ccccn1 (stereo unspecified) — lower, -16.5%
- O=C(c1cccnc1N1CCOC(c2ccc(Cl)cc2)C1)N1CCCC1 (stereo unspecified) — higher, -5.24%
- CCc1cnc(C)nc1NCC(O)CN1CCCCCC1 (stereo unspecified) — higher, -4.26%
- O=C(c1cc(C2CC2)no1)N1C[C@H]2CC[C@@H]1CN(Cc1ccccn1)C2 — lower, -14.9%
- CC(=O)c1ccc(N2CCC3(CCC(=O)N(C4CC4)C3)CC2)nc1 — higher, -1.87%
- O=C1CC(c2ccc(CO)o2)c2cnn(Cc3ccco3)c2N1 (stereo unspecified) — lower, -7.94%
- Cc1nc(C)n(CCNC(=O)C(C)n2ccnc2C(C)C)n1 (stereo unspecified) — higher, -0.492%
- CCN(CC)C(=O)[C@@H]1C[C@H](NC(=O)c2cccn2C(C)C)CN1C — lower, -9.19%
- CCC(Nc1nccc(C2CCCC2)n1)c1ccccn1 (stereo unspecified) — higher, -3.14%
- O[C@]12CCNC[C@H]1CN(c1ncccc1Cl)CC2 — lower, -16.6%
- CSC(C)C(=O)N1CCC(Oc2cc(C)ccc2F)(C(=O)O)CC1 (stereo unspecified) — lower, -7.76%
- Cc1nc(C)n(CC(C)C(=O)N2CCCN(C3CCCC3)CC2)n1 (stereo unspecified) — the same, -6.07%
- O=C(c1cccc(Cl)c1F)N1CCOC2(CNCCOC2)C1 (stereo unspecified) — higher, 32.2%
- Cc1ccc2cc(CN(C)Cc3nccs3)c(=O)[nH]c2c1 — lower, -11.3%
- FC(F)(F)CCc1ncnn1-c1ccc2c(c1)OCO2 — lower, -7.77%
- Cc1[nH]c(=O)c(C#N)cc1C(=O)N1C[C@@H](CN2CCCC2)C[C@H](CO)C1 — lower, -7.24%
- COc1ccc(CCN2CCCC(CN(C)Cc3ccc(C)o3)C2)cc1 (stereo unspecified) — higher, -5.02%
- Cc1ccc2c(ccn2CCC(=O)O)c1 — higher, -4.94%
- Cc1cc(C(=O)N2CCC(c3nccn3Cc3ccncc3)CC2)no1 — higher, 1.65%
- CS(=O)(=O)N1C[C@@H]2CC[C@H](C1)N(Cc1cscn1)C2=O — lower, -11.4%
- Cc1ccccc1N1CCN(C(=O)c2ccc[nH]2)C(C)C1 (stereo unspecified) — higher, -2.71%
- CCCn1nccc1C(=O)N1CCCN(CCCc2ccccc2)CC1 — lower, -7.2%
- COc1ccc(C(=O)C2CCCN(Cc3ccc(C)o3)C2)c(OC)c1 (stereo unspecified) — higher, -4.07%
- O=C(c1cc(COc2ccc3c(c2)OCO3)[nH]n1)N1CC=CC1CO (stereo unspecified) — lower, -8.31%
- Cc1cnccc1N1CCCN(C(=O)CCCc2cn[nH]c2)CC1 — higher, 2.95%
- Cc1nccnc1N1CCC2(CCCN(C3CCOCC3)C2=O)C1 (stereo unspecified) — higher, 7.43%
- COc1cccc(N2CCN(Cc3ccc(NC(C)=O)cc3)CC2=O)c1 — higher, 9.59%
- Cc1c[nH]c(CN(C)C(=O)c2cccc(CCC(C)(C)O)c2)n1 — higher, -5.47%
- O=C(CSCC1CC1)N1CCCC(c2nccn2Cc2ccncc2)C1 (stereo unspecified) — lower, -9.73%
- Cc1scc(C(=O)N2CCC3(CC(=O)NC3=O)C2)c1-c1ccccc1 (stereo unspecified) — lower, -11%
- Cc1cccnc1CNCC1(O)CCCN(Cc2ccc(F)cc2)C1=O (stereo unspecified) — higher, 23.1%
- Cc1c(CN2CCOCC2)c(O)n(CCO)c(=O)c1C#N — higher, 41%
- Cc1nn(CC(=O)n2cccn2)c(C)c1I — higher, 15.6%
- CCc1noc(-c2cccc(C(=O)O)c2)n1 — higher, 23.7%
- Cc1cc(SCC(=O)O)nc2nn(CC(F)F)c(C)c12 — higher, -1.44%
- CCSc1ncc(Cl)c(C(=O)NC(CCSC)C(=O)O)n1 (stereo unspecified) — lower, -7.9%
- CSc1ncc(Cl)c(C(=O)NC(Cc2ccccc2)C(=O)O)n1 (stereo unspecified) — higher, 15%
- N#CCCn1nc(C(F)(F)F)c2c1CCCC2 — lower, -6.63%
- COc1ccc(-c2cc(N)on2)cc1 — higher, 13.8%
- CC(C)c1cc(COCCC(=O)O)no1 — lower, -6.18%
- Cc1c(NC(=O)c2noc3c2CCCC3)cnn1C — higher, 16.1%
- CCC(NC(=O)c1nn(C)cc1C(=O)O)c1ccccc1 (stereo unspecified) — lower, -15.2%
- CCC(NC(=O)c1nn(C)cc1C(=O)O)c1ccc(C)cc1 (stereo unspecified) — higher, -5.71%
- COc1ccc(N(c2ccc(C)cc2)c2ccc(C(=O)O)s2)cc1 — higher, -0.995%
- Clc1ccc(C2NCCc3cc4c(cc32)OCCO4)cc1 (stereo unspecified) — higher, 32.9%
- CCc1ccc(C2NCCc3cc4c(cc32)OCCO4)cc1 (stereo unspecified) — higher, 8.93%
- CNCc1cc(F)ccc1Oc1ccc(F)cc1 — higher, 2.53%
- COc1ccc(C2=CNC(C(F)(F)F)=CC2N)cc1 (stereo unspecified) — higher, -0.00247%
- CC(C)c1cc(CN2CCC(N)CC2)no1 — higher, -6.06%
- Cc1nn(C)cc1-c1cc(C(F)F)n2nc(CCC(=O)O)nc2n1 — higher, -0.99%
- CCOCn1cc(NC(=O)C2CCN(S(C)(=O)=O)CC2)cn1 — higher, -2.16%
- CS(=O)(=O)N1CCCC(C(=O)Nc2cnn(Cc3ccc(Cl)cc3)c2)C1 (stereo unspecified) — higher, 0.541%
- CCc1nc(C)cn1C(=O)Nc1ccccc1 — higher, 2.98%
- CCc1nc(C)cn1C(=O)Nc1ccc(F)cc1 — higher, 5.48%
- O=C(O)Cc1nc2nccc(-c3ccc(F)cc3)n2n1 — higher, 17.4%
- N#Cc1cc2c(nc1O)CCCCC2 — higher, -2.17%
- Cn1c(=O)c2cc(C(=O)NCCOc3ccccc3)ccc2n(C)c1=O — higher, 24.3%
- Cn1c(=O)c2cc(C(=O)NCc3ccccn3)ccc2n(C)c1=O — higher, -4.37%
- CC(CC#N)n1ccc(C(F)(F)F)n1 (stereo unspecified) — higher, -0.316%
- CCC(CC#N)n1ccc(C(F)(F)F)n1 (stereo unspecified) — higher, 22.2%
- Cc1nn(C)cc1-c1cc(C(F)(F)F)n(CCCN)n1 — higher, -0.484%
- Cc1cc(C(F)(F)F)nn1CCCNC(=O)C1CCCO1 (stereo unspecified) — higher, 16.3%
- COC(=O)N1CC(C)=C(C)CN1C(=O)Nc1cccc(Cl)c1 — higher, 0.501%
- CCOC(=O)N1CC(C)=C(C)CN1C(=O)Nc1ccc(Cl)c(Cl)c1 — higher, 6.17%
- Cc1cc(Br)c(O)c(-c2nc(N3CCOCC3)sc2C)c1 — higher, 5.07%
- NC(=O)c1c[nH]nc1NC(=O)c1cccc(Cl)c1 — higher, -3.76%
- COc1ccccc1-c1cc(C(F)(F)F)c2c(C)nn(CC(=O)O)c2n1 — higher, 18.1%
- CCc1cc(C(F)(F)F)c2c(C)nn(CC(=O)O)c2n1 — higher, 4.66%
- CCn1ncc(Br)c1CN(C)S(=O)(=O)c1ccc(C)cc1 — higher, 8.37%
- CNC(=O)c1cccc(C2CNCCN2C)c1 (stereo unspecified) — higher, 19.9%
- CC(C)N1CCC(Cc2cc(-c3ccccc3C(=O)O)ncn2)CC1 — higher, 16.5%
- CNC(=O)[C@@H](c1ccccc1F)N1CCC[C@H]1C(=O)NC1CC1 — higher, -4.55%
- CNCc1cc(F)ccc1Oc1ccc(Cl)cc1 — higher, 2.13%
